Measured values from patent US20210330611A1, “THERAPY FOR NEUROLOGICAL DISEASES/DISORDERS” (priority 2020, published 2021).
Where “and” joins values, the source holds several entries; their conditions need not be identical. Equal values may be shown once. Read-outs that look alike come from different tables or passages of the source.

How the values were obtained:
[1] = system: fibrin- and LPS-induced microglia activation; assay: cells; format: cell-based, rat
[2] = system: primary rat microglia; assay: Cell toxicity (dead cells, size <150 μm2) in coated fibrin (cFib) assay; settings: primary microglia HTS;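 also: share of dead cells sized under 150 µm2 at 10 µM in fibrin-stimulated microglia HTS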
[3] = system: fibrin-induced microglia activation; assay: Image-based assay of fibrin-induced microglia activation (HTS and dose response); format: cell-based, rat; settings: for inhibition at 10 µM: Rattus norvegicus, Microglia, read-out: Fibrin % inhibition
[4] = system: primary rat microglia
[5] = system: LPS-induced microglia activation; assay: Image-based assay of LPS-induced microglia activation (HTS and dose response); format: cell-based, rat
[6] = quadrant by fibrin and LPS inhibition, HTS at 10 μM
[7] = fibrin assay, dead cells (size <150 μm2)
[8] = primary microglia HTS, fibrin stimulation, compounds at 10 μM, 10 µM
[9] = quadrant by fibrin and LPS inhibition in HTS of 1907 compounds
[10] = primary microglia HTS, fibrin stimulation, activation = cell size >800 μm2
[11] = Rattus norvegicus, Microglia, 48 h, read-out: LPS % inhibition
[12] = Rattus norvegicus, Microglia, 48 h, primary microglia HTS, LPS stimulation, activation = cell size >800 μm2; read-out: LPS % inhibition
[13] = Rattus norvegicus, Microglia, primary microglia HTS, LPS stimulation, compounds at 10 μM; read-out: LPS % inhibition
[14] = primary microglia HTS, fibrin stimulation, compounds at 10 μM
[15] = Rattus norvegicus, Microglia, 48 h, primary microglia HTS, LPS stimulation; increased cell size (>800 μm^2) as marker of activation; read-out: LPS % inhibition
[16] = primary microglia HTS, fibrin stimulation, increased cell size (>800 μm^2) as marker of activation
[17] = primary microglia HTS, LPS stimulation; increased cell size (>800 μm^2) as marker of activation
[18] = fibrin stimulation, cell size <150 μm2 as marker of toxicity
[19] = classification by fibrin and LPS inhibition in HTS

SMILES: COc1ccc(CC2c3cc(OC)c(OC)cc3CC[N+]2(C)CCC(=O)OCCCCCOC(=O)CC[N+]2(C)CCc3cc(OC)c(OC)cc3C2Cc2ccc(OC)c(OC)c2)cc1OC (stereo not shown) [Atracurium Besylate]
- Quadrant (FIG. 5b) [1, 6]: Q4
- Fibrin % cell toxicity [2, 7]: 0% and 1%
- Fibrin % inhibition [3, 8]: −3% and 2%
- LPS % cell toxicity ([4]; rat): 0%

SMILES: C[C@H]1[C@H](NC(=O)/C(=N\OC(C)(C)C(=O)O)c2csc(N)n2)C(=O)N1S(=O)(=O)O [Aztreonam]
- Quadrant (FIG. 5b) [1, 6]: Q4
- Fibrin % cell toxicity [2, 7]: 1% and 0%
- LPS % cell toxicity ([4]; rat): 0%

SMILES: CCOC(=O)c1cncn1[C@H](C)c1ccccc1 [Etomidate]
- Quadrant (FIG. 5b) ([1]; classification by fibrin and LPS inhibition, HTS at 10 μM): Q4
- Fibrin % cell toxicity ([2]; fibrin assay, dead cells (size <150 μm2), compounds at 10 μM): 0%
- Fibrin % inhibition [3, 8]: −19% and −24%
- LPS % cell toxicity ([4]; rat): 0%

SMILES: COc1ccc(Cl)cc1C(=O)NCCc1ccc(S(=O)(=O)NC(=O)NC2CCCCC2)cc1 [Glibenclamide, Glyburide]
- Quadrant (FIG. 5b) [1, 9]: Q4
- LPS % inhibition ([5]; primary microglia HTS, LPS stimulation, activation = cell size >800 μm2): 8%
- Fibrin % inhibition [3, 10]: −23%
- LPS % cell toxicity [4]: 0%

SMILES: NCCc1c[nH]cn1 [Histamine]
- Quadrant (FIG. 5b) [1]: Q4
- inhibition at 10 µM [5, 11]: 27%
- inhibition at 10 µM [3]: 21%
- LPS % cell toxicity ([4]; rat): 0%

SMILES: NC(=O)NO [Hydroxyurea]
- Quadrant (FIG. 5b) [1, 9]: Q4
- inhibition at 10 µM [5, 12]: 25%
- inhibition at 10 µM [3, 10]: 1%
- LPS % cell toxicity ([4]; rat): 1%

SMILES: O=P1(NCCCl)OCCCN1CCCl (stereo not shown) [Ifosfamide]
- Quadrant (FIG. 5b) [1, 9]: Q4
- inhibition at 10 µM [5, 12]: 10%
- inhibition at 10 µM [3, 10]: -11%
- LPS % cell toxicity ([4]; rat): 0%

SMILES: O=C1c2c(O)ccc(O)c2C(=O)c2c(NCCNCCO)ccc(NCCNCCO)c21 [Mitoxantrone]
- Quadrant (FIG. 5b) [1, 6]: Q2
- inhibition at 10 µM [5, 13]: 122%
- inhibition at 10 µM [3, 14]: 113%
- LPS % cell toxicity ([4]; rat): 40%

SMILES: COCCOC(=O)C1=C(C)NC(C)=C(C(=O)OC(C)C)C1c1cccc([N+](=O)[O-])c1 (stereo not shown) [Nimodipine]
- Quadrant (FIG. 5b) [1, 9]: Q4
- inhibition at 10 µM [5, 15]: 2%
- inhibition at 10 µM [3, 16]: -6%
- LPS % cell toxicity ([4]; rat): 0%

SMILES: CCCCCCCCCCCCCCCC(=O)NCCO [Palmidrol]
- Quadrant (FIG. 5b) [1]: Q4
- inhibition at 10 µM [5, 11]: 7%
- inhibition at 10 µM [3]: -40%
- LPS % cell toxicity ([4]; rat): 0%

SMILES: CC(=O)O[C@H]1C[C@@H]2CC[C@@H]3[C@H](CC[C@@]4(C)[C@H]3C[C@H]([N+]3(C)CCCCC3)[C@@H]4OC(C)=O)[C@@]2(C)C[C@@H]1[N+]1(C)CCCCC1 [Pancuronium Bromide]
- Quadrant (FIG. 5b) [1, 9]: Q4
- LPS % inhibition [5, 17]: 11%
- Fibrin % inhibition [3, 16]: 9%
- LPS % cell toxicity ([4]; rat): 0%

SMILES: CC(=O)O[C@H]1C[C@@H]2CC[C@@H]3[C@H](CC[C@@]4(C)[C@H]3C[C@H]([N+]3(C)CCCCC3)[C@@H]4OC(C)=O)[C@@]2(C)C[C@@H]1[N+]1(C)CCCCC1 [Pancuronium]
- Quadrant (FIG. 5b) [1, 9]: Q4
- LPS % inhibition [5, 17]: 1%
- Fibrin % inhibition [3, 16]: −4%
- LPS % cell toxicity ([4]; rat): 0%

SMILES: CC(C)(CO)[C@@H](O)C(=O)NCCC(=O)O [Pantothenic Acid]
- Quadrant (FIG. 5b) [1, 9]: Q4
- inhibition at 10 µM [5, 15]: 5%
- inhibition at 10 µM [3, 16]: 7%
- LPS % cell toxicity ([4]; rat): 1%

SMILES: CSCC[C@H](NC(=O)[C@H](Cc1c[nH]c2ccccc12)NC(=O)CCNC(=O)OC(C)(C)C)C(=O)N[C@@H](CC(=O)O)C(=O)N[C@@H](Cc1ccccc1)C(N)=O [Pentagastrin]
- Fibrin % cell toxicity [2, 18]: 1%
- LPS % cell toxicity [4]: 1%

SMILES: O=C(O)Cc1ccccc1 [Phenylacetic acid]
- Quadrant (FIG. 5b) [1, 19]: Q4
- Fibrin % cell toxicity [2, 18]: 1%
- LPS % cell toxicity ([4]; rat): 0%

SMILES: CCN1CCN(C(=O)N[C@@H](C(=O)N[C@@H]2C(=O)N3[C@@H]2SC(C)(C)[C@@H]3C(=O)O)c2ccccc2)C(=O)C1=O [Piperacillin Sodium]
- Quadrant (FIG. 5b) [1, 19]: Q4
- inhibition at 10 µM ([5]; Rattus norvegicus, Microglia, 48 h; read-out: LPS % inhibition): 17%
- inhibition at 10 µM ([3]; primary microglia HTS, fibrin stimulation, cell size >800 μm2 as marker of activation): -25%
- LPS % cell toxicity ([4]; rat): 0%

SMILES: CCN1CCN(C(=O)N[C@@H](C(=O)N[C@@H]2C(=O)N3[C@@H]2SC(C)(C)[C@@H]3C(=O)O)c2ccccc2)C(=O)C1=O [Piperacillin]
- Quadrant (FIG. 5b) [1, 6]: Q2
- inhibition at 10 µM [5, 13]: 80%
- inhibition at 10 µM [3, 14]: 103%
- LPS % cell toxicity ([4]; rat): 2%
